Source: patent US5563037A, “Homogeneous method for assay of double-stranded nucleic acids using fluorescent dyes and kit useful therein” (Johnson & Johnson Clinical Diagnostics, Inc., priority 1995, dated 1996)
pKd: −log10 of the molar value. Where “and” joins values, the source holds several entries; their conditions need not be identical. Equal values may be shown once.

Tests used:
HIV-I DNA [1] = test: Example 3: fluorescence after amplification with dye; usefulness / PCR inhibition; assay type: biochemical; details: for Fluorescent Signal: amplified samples mixed with YOYO-1 (0.1 μmolar); for usefulness of dye / inhibition of PCR: dye in amplification
Protocol: The primers used in Example 3 had the following sequences which are complementary to the gag region of HIV-I DNA: Amplification experiments like those of Example 2 were also carried out to evaluate the usefulness of several other conventional fluorescent dye stains. In these assays, primers identified above as SEQ ID NO:3 and SEQ ID NO:4 were used, as well as the probe identified as SEQ ID NO:6. […] Fluorescence was determined as described in Example 2 except that all amplified samples were mixed with a solution of YOYO-1 (0.1 μmolar) to provide a common minimum threshold of signal.

[2] = target: double-stranded nucleic acids; test: Binding constant (Kb) of fluorescent dye with double-stranded nucleic acids; details: Kp from Molecular Probes catalog divided by 55
From the text: The fluorescent dyes useful herein are generally defined as unsymmetrical cyanine dyes having a binding constant (Kb) within the range of from about 1×104 to about 5×105 (molar^-1). As used to define Kb, "about" refers to a variance of 10%. The dyes are also water-soluble or water-dispersible so they can bind to the nucleic acids in the aqueous reaction mixture. Depending upon the anions used, the dyes may be dissolved in a water-miscible solvent.
Particularly useful fluorescent dyes are commercially available from Molecular Probes, Inc. having the trade names and Kp values listed in Table I below. However, this invention is not to be construed as limited to the particular Molecular Probes, Inc. dyes listed therein since these are but preferred dyes. The cations of these preferred dyes are also identified below by chemical structure. The compounds can include any suitable divalent anion, or two monovalent anions. Iodide is preferred. [drawing 3]
*The Kb values in the table were calculated by dividing the partitio
coefficient (Kp) reported in the Molecular Probes, Inc. catalog, page 224
by 55, the molarity of water.

HIV-I DNA [3] = test: Example 2: ethidium bromide stained electrophoretic gels of amplification products; assay type: biochemical
Protocol: The method of this invention was compared to an amplification and detection method outside the scope of this invention, which was carried out using YOYO-1 (1 μmolar final concentration), a tetravalent fluorescent dye, in the buffered solution described above. This dye has the following structure: [drawing 4] The PCR reaction mixture of Example 1 (except the DNA polymerase) was made to a volume of 5472 μl. The resulting mixture was aliquoted into tubes A, B and C (1824 μl each) representing Samples A, B and C, respectively. The sample in Tube A was diluted with buffer (220 μl) and subjected to amplification without any fluorescence dye present. The dye was added at the end of amplification for quantitative detection of the resulting products. In addition to the PCR reagents, the sample in Tube B contained YOYO-1 fluorescent dye (0.1 μmolar) which had been added prior to amplification (220 μl of a 10 μmolar solution). The sample in Tube C also contained YO-[…] fluorescent dye (0.1 μmolar) which had been added prior to amplification (220 μl of a 10 μmolar solution). The DNA polymerase (88 μl) and target HIV-I DNA target nucleic acid (220 μl) were then added to each tube, and the contents of the each of the three tubes were used to fill the PCR reagent compartment of eight pouches. Amplification was carried out using the same procedures as in Example 1. […] follows: The results of amplification were detected in three ways: (1) color dye scores visually evaluated as 0 (no signal) to 10 (highest signal density), (2) ethidium bromide stained electrophoretic gels, and (3) fluorescence measured on a commercially available Perkin Elmer fluorimeter. Electrophoresis was carried out using commercially available NuSieve 1.5%/Seakem Agarose 1% gels (modified to 2.5% agarose) and ethidium bromide stain. The samples were applied to the gels in conventional TBE buffer (4 μl/100 μl). Three replicate assays of each sample (A, B and C) were carried out using each detection means. The average result for each detection means was as follows: […]

HIV-I DNA [4] = test: Example 2: fluorescence of amplification products; assay type: biochemical
Protocol: (§1) The method of this invention was compared to an amplification and detection method outside the scope of this invention, which was carried out using YOYO-1 (1 μmolar final concentration), a tetravalent fluorescent dye, in the buffered solution described above. This dye has the following structure: [drawing 4]
(§2) The PCR reaction mixture of Example 1 (except the DNA polymerase) was made to a volume of 5472 μl. The resulting mixture was aliquoted into tubes A, B and C (1824 μl each) representing Samples A, B and C, respectively.
(§3) The sample in Tube A was diluted with buffer (220 μl) and subjected to amplification without any fluorescence dye present. The dye was added at the end of amplification for quantitative detection of the resulting products.
(§4) In addition to the PCR reagents, the sample in Tube B contained YOYO-1 fluorescent dye (0.1 μmolar) which had been added prior to amplification (220 μl of a 10 μmolar solution).
(§5) The sample in Tube C also contained YO-PRO-1 fluorescent dye (0.1 μmolar) which had been added prior to amplification (220 μl of a 10 μmolar solution).
(§6) The DNA polymerase (88 μl) and target HIV-I DNA target nucleic acid (220 μl) were then added to each tube, and the contents of the each of the three tubes were used to fill the PCR reagent compartment of eight pouches.
Amplification was carried out using the same procedures as in Example 1. […]
(§7) The results of amplification were detected in three ways: (1) color dye scores visually evaluated as 0 (no signal) to 10 (highest signal density), (2) ethidium bromide stained electrophoretic gels, and (3) fluorescence measured on a commercially available Perkin Elmer fluorimeter.
Three replicate assays of each sample (A, B and C) were carried out using each detection means. The average result for each detection means was as follows:
Fluorescent signal was generated using a Perkin-Elmer LS-5B fluorimeter, at the following wavelengths for both dyes:
Each amplification product mixture was diluted 100× into a solution of each dye (1 μmolar final concentration). Background signals were obtained from a mixture of amplification reagent mixture and each dye.

HIV-I DNA [5] = test: Example 2: leuco dye color scores of amplified target in pouches; assay type: biochemical; details: dye added prior to amplification
Protocol: as §1
Amplification was carried out using self-contained chemical pouches such as those described in U.S. Pat. No. 5,229,297 (Schnipelsky et al). Those pouches contained the capture probe SEQ ID NO:5 attached to particles which were immobilized in a detection channel where reactions can take place.
The pouches were loaded with reagents, as follows:
as §2, §3, §4, §5, §6
Amplification was carried out using the same procedures as in Example 1. The PCR protocol was similarly carried out for 40 cycles using a thermal cycler as follows:
1) Preheat to denature at 95° C. for 60 seconds,
priming and extension for 40 seconds at 63.5° C., and denaturation for 10 seconds at 95° C., and
3) final denaturation for 60 seconds at 95° C.
as §7
The noted color scores were obtained by using immobilized capture probes in the pouches with which the amplified target hybridized during incubation for 5 minutes at 42° C. The immobilized target was contacted with the conjugate solution (identified above) for 1 minute at 30° C., followed by the wash solution for 1 minute at 55° C. The leuco dye solution was then added at 30° C. and the resulting color signal was observed after two minutes incubation at 30° C. […]

[6] = 60 cycles, in the presence of YOYO-1

Q: How did the “Fluorescent Signal” value (HIV-I DNA [1]) turn out when `C[n+]1c(C=CC=C2C=CN(CCC[N+](C)(C)C)c3ccccc32)sc2ccccc21` [Compound H] was run?
A: 15.5

Q: What about the “usefulness of dye / inhibition of PCR” value (HIV-I DNA [1]) of the same compound?
A: useful

Q: And the pKd [2]?
A: 5.04

Q: `C[n+]1c(C=CC=C2C=CN(CCC[N+](C)(C)C)C=C2)sc2ccccc21` [D] was tested. Which pKd [2] did it give?
A: 4.94

Q: `CN1/C(=C/c2cc[n+](CCC[N+](C)(C)CCC[N+](C)(C)CCC[n+]3ccc(/C=C4\Sc5ccccc5N4C)c4ccccc43)c3ccccc23)Sc2ccccc21.[I-].[I-].[I-].[I-]` [TOTO-1, reference compound] was tested. Which “Fluorescent Signal” value (HIV-I DNA [1]) did it give?
A: 2.70

Q: What does the source list for `C[n+]1c(C=C2C=CN(CCC[N+](C)(C)C)C=C2)sc2ccccc21` [Compound C]?
A: Fluorescent Signal (HIV-I DNA [1]): 19.6; usefulness of dye / inhibition of PCR (HIV-I DNA [1]): useful; pKd [2]: 4.76

Q: For `C[n+]1c(C=C2C=CN(CCC[N+](C)(C)CCC[N+](C)(C)CCCN3C=CC(=Cc4oc5ccccc5[n+]4C)c4ccccc43)c3ccccc32)oc2ccccc21` [YOYO-1], which “difference with modified protocol, by gel electrophoresis” value (HIV-I DNA [3]; [6]) is on record?
A: not by gel electrophoresis

Q: And the “effect of dye on amplification (gel)” value (HIV-I DNA [3]; dye added prior to amplification)?
A: stopped amplification

Q: What about the “Positive/negative Gel Bands” value (HIV-I DNA [3]; dye added prior to amplification, 40 cycles) of the same compound?
A: 5 Negatives out of 5 bands

Q: And the “Fluorescent Signal” value (HIV-I DNA [1])?
A: 2.18

Q: And the “usefulness of dye / inhibition of PCR” value (HIV-I DNA [1])?
A: not useful because they generally inhibited PCR

Q: What about the “difference with modified protocol, by fluorescence” value (HIV-I DNA [4]; [6]) of the same compound?
A: small and was detectable by fluorescence

Q: What about the “Fluorescence, dye added after amplification (Sample A)” value (HIV-I DNA [4]; Sample A, dye added after amplification, replicates, 491/509 nm) of the same compound?
A: 7.1 Fluorescent Units and 6.6 Fluorescent Units and 6.0 Fluorescent Units (2×)

Q: What about the Background fluorescence (HIV-I DNA [4]; amplification reagent mixture and dye, excitation 491 nm, emission 509 nm) of the same compound?
A: 0.09 Fluorescent Units

Q: And the “effect of dye on amplification / overall signal” value (HIV-I DNA [4]; comparison of the two dyes (fluorescence))?
A: considerably inhibits the amplification process

Q: What about the “Fluorescence, dye present during amplification (Samples B, C)” value (HIV-I DNA [4]; dye added prior to amplification, replicates, 491/509 nm) of the same compound?
A: 1.5 Fluorescent Units (3×) and 1.4 Fluorescent Units (2×)

Q: What about the nucleic acid staining (HIV-I DNA [4]; in words) of the same compound?
A: high nucleic acid staining

Q: And the “effect of dye on amplification (color scores)” value (HIV-I DNA [5])?
A: inhibited amplification

Q: What about the “Average Color Score” value (HIV-I DNA [5]; leuco dye, 0 (no signal) to 10 (highest signal density), 40 cycles) of the same compound?
A: 0

Q: With TOTO-3 [reference compound] as the compound, how does the “Fluorescent signal and its repeatability (in words)” value (HIV-I DNA [1]; Table II footnote) read?
A: high fluorescent signal in one experiment

Q: What about the “Fluorescent Signal” value (HIV-I DNA [1]) of the same compound?
A: 8.45

Q: For `C[n+]1c(C=C2C=CN(CCC[N+](C)(C)C)c3ccccc32)sc2ccccc21` [Compound G], which “Fluorescent Signal” value (HIV-I DNA [1]) is on record?
A: 8.32

Q: What about the “usefulness of dye / inhibition of PCR” value (HIV-I DNA [1]) of the same compound?
A: useful

Q: What about the pKd [2] of the same compound?
A: 5.56

Q: With `C[n+]1c(C=C2C=CN(CCC[N+](C)(C)C)C=C2)oc2ccccc21` [A] as the compound, how does the pKd [2] read?
A: 4.56

Q: With `C[n+]1c(C=CC=C2C=CN(CCC[N+](C)(C)C)c3ccccc32)oc2ccccc21` [F] as the compound, how does the pKd [2] read?
A: 4.78
